Measured values: patent US20240116985A1, “STAPLED PEPTIDES AND METHODS THEREOF” (priority 2020, published 2024)
pIC50: −log10 of the molar value. Where two headings read alike, the source gives them in different places.

Legend:
[1] = biological target: T1, full-length beta-Catenin (Uniprot ID P35222) (Homo sapiens, UniProt P35222); assay: Fluorescence polarization IC50 (beta-catenin / 5FAM-TCF4 10-53 competition); format: binding; settings: fluorescence polarization; read-out: beta-Catenin FP IC50
T1 construct: 10 nM full-length beta-Catenin (Uniprot ID P35222)
T1 sequence (P35222 1-781): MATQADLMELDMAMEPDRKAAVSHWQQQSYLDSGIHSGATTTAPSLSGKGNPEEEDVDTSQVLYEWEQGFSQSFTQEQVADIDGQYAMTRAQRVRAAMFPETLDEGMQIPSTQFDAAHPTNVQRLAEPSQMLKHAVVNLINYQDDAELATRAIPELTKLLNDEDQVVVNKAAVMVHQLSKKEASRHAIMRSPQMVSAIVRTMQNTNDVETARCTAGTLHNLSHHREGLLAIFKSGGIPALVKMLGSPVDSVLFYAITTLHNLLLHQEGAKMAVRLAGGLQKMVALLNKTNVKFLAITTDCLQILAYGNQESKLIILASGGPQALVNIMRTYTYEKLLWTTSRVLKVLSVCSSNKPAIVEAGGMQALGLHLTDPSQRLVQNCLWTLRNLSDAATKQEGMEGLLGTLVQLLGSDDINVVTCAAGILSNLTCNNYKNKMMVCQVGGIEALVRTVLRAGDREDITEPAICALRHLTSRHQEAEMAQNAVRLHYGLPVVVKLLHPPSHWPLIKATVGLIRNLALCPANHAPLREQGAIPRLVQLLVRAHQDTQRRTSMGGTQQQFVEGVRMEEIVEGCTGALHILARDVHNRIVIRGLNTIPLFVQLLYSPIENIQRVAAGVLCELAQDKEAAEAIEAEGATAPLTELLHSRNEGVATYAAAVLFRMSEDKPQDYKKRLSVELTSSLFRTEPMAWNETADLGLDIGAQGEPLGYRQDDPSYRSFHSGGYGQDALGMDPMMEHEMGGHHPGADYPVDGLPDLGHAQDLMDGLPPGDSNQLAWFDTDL

[2] = biological target: T2, beta-catenin/TCF4 engagement (Homo sapiens, UniProt P35222); assay: Nano-BRET target engagement assay (B-cat-Halo & TCF4-Luc in HEK293 cells); format: cell-based; settings: read-out: NanoBRET Abs IC50
T2 construct: expressed in transfected cells; host or cells: HEK293
T2 sequence (P35222 1-781): T1 sequence (P35222 1-781)

Compound | pIC50 [1] | pIC50 [2] | pIC50 ([2]; absolute IC50)
CC(=O)N1CCC[C@]12CC=CCCCC1(CCCC=CCCCOC(=O)N3CC[C@@](C(=O)N[C@@H](Cc4ccsc4)C(=O)N[C@@H](Cc4csc5ccccc45)C(=O)N[C@@H](C)C(N)=O)(C3)NC(=O)[C@H](CC(C)C)NC(=O)[C@H](Cc3ccccc3)NC(=O)[C@H](C)NC(=O)[C@H](CCC(N)=O)NC(=O)[C@H](Cc3ccc(F)c(C(=O)O)c3)NC(=O)[C@H](CC(=O)O)NC1=O)NC(=O)[C@H](CC(C)(C)C)NC(=O)[C@H](CC(=O)O)NC2=O (stereo partly drawn) [I-2206, Ac-PL3-Asp-Npg-B5-Asp-4F3COOHF-Gln-Ala-Phe-Leu-PyrS2-3Thi-BztA-Ala-NH2] | 8.15 | 5.15 | 
CC(=O)N1CCC[C@]12CC=CCCCC1(CCCC=CCCCOC(=O)N3CC[C@@](C(=O)N[C@@H](Cc4ccsc4)C(=O)N[C@@H](Cc4csc5ccccc45)C(=O)N[C@@H](Cc4ccccc4)C(N)=O)(C3)NC(=O)[C@H](CC(C)C)NC(=O)[C@H](Cc3ccccc3)NC(=O)[C@H](C)NC(=O)[C@H](C)NC(=O)[C@H](CC(=O)O)NC(=O)[C@H](CC(=O)O)NC1=O)NC(=O)[C@H](CC(C)(C)C)NC(=O)[C@H](CC(=O)O)NC2=O (stereo partly drawn) [I-1496, Ac-PL3-Asp-Npg-B5-Asp-Asp-Ala-Ala-Phe-Leu-PyrS2-3Thi-BztA-Phe-NH2] | 7.29 |  | 5.03
CC(=O)N1CCC[C@]12CC=CCCCC1(CCCC=CCCCOC(=O)N3CC[C@@](C(=O)N[C@@H](Cc4ccsc4)C(=O)N[C@@H](Cc4csc5ccccc45)C(=O)N[C@@H](CCC(N)=O)C(N)=O)(C3)NC(=O)[C@H](CC(C)C)NC(=O)[C@H](Cc3ccccc3)NC(=O)[C@H](C)NC(=O)[C@H](C)NC(=O)[C@H](CN(CC(=O)O)C(=O)CCCN(C)C)NC(=O)[C@H](CC(=O)O)NC1=O)NC(=O)[C@H](CC(C)(C)C)NC(=O)[C@H](CC(=O)O)NC2=O (stereo partly drawn) [I-2233, Ac-PL3-Asp-Npg-B5-Asp-[NdiMeButC]GA-Ala-Ala-Phe-Leu-PyrS2-3Thi-BztA-Gln-NH2] | 7.85 |  | < 4.70
CC(=O)N1CCC[C@]12CC=CCCCC1(CCCC=CCCCOC(=O)N3CC[C@@](C(=O)N[C@@H](Cc4ccccc4C(F)(F)F)C(=O)N[C@@H](Cc4ccc(Cl)c(Cl)c4)C(=O)N[C@@H](CO)C(N)=O)(C3)NC(=O)[C@H](CC(C)C)NC(=O)[C@H](Cc3ccccc3)NC(=O)[C@H](C)NC(=O)[C@H](C)NC(=O)[C@H](Cc3cccc(C(=O)O)c3)NC(=O)[C@H](CC(=O)O)NC1=O)NC(=O)[C@H](CC(C)(C)C)NC(=O)[C@H](CC(=O)O)NC2=O (stereo partly drawn) [I-2218, Ac-PL3-Asp-Npg-B5-Asp-3COOHF-Ala-Ala-Phe-Leu-PyrS2-2F3MeF-34C1F-Ser-NH2] | 7.47 |  | 5.29
CC[C@@H]1NC(=O)[C@H](Cc2ccccc2)NC(=O)[C@H](C)NC(=O)C(C)(C)NC(=O)[C@H](Cc2cccc(C(=O)O)c2)NC(=O)[C@H](CC(=O)O)NC(=O)C2(CCCC=CCCCOC(=O)N3CC[C@@](C(=O)N[C@@H](Cc4ccsc4)C(=O)N[C@@H](Cc4csc5ccccc45)C(=O)N[C@@H](CCC(=O)N4CCN(C(C)=O)CC4)C(N)=O)(C3)NC1=O)CCCC=CC[C@]1(CCCN1C(C)=O)C(=O)N[C@@H](CC(=O)O)C(=O)N[C@@H](CC(C)(C)C)C(=O)N2 (stereo partly drawn) [I-2561, Ac-PL3-Asp-Npg-B5-Asp-3COOHF-Aib-Ala-Phe-Abu-PyrS2-3Thi-BztA-[AcPpz]GlnR-NH2] | 8.30 |  | 5.14
CC(=O)N1CCC[C@]12CC=CCCCC1(CCCC=CCCCOC(=O)N3CC[C@@](C(=O)N[C@@H](Cc4ccsc4)C(=O)N[C@@H](Cc4csc5ccccc45)C(=O)N[C@@H](CCC(N)=O)C(N)=O)(C3)NC(=O)[C@H](CC(C)C)NC(=O)[C@H](Cc3ccccc3)NC(=O)[C@H](C)NC(=O)[C@H](C)NC(=O)[C@H](CN(CC(=O)O)C(=O)Cc3ccc(C(F)(F)F)cc3)NC(=O)[C@H](CC(=O)O)NC1=O)NC(=O)[C@H](CC(C)(C)C)NC(=O)[C@H](CC(=O)O)NC2=O (stereo partly drawn) [I-2236, Ac-PL3-Asp-Npg-B5-Asp-[4CF3PhAc]GA-Ala-Ala-Phe-Leu-PyrS2-3Thi-BztA-Gln-NH2] | 7.64 |  | 4.82
CC(=O)N1CCC[C@]12CC=CCCCC1(CCCC=CCCCOC(=O)N3CC[C@@](C(=O)N[C@@H](Cc4ccsc4)C(=O)N[C@@H](Cc4csc5ccccc45)C(=O)N[C@@H](CCC(N)=O)C(N)=O)(C3)NC(=O)[C@H](Cn3cc(CN(C)C)nn3)NC(=O)[C@H](Cc3ccccc3)NC(=O)[C@H](C)NC(=O)[C@H](C)NC(=O)[C@H](CN(CC(=O)O)CC(F)(F)F)NC(=O)[C@H](CC(=O)O)NC1=O)NC(=O)[C@H](CC(C)(C)C)NC(=O)[C@H](CC(=O)O)NC2=O (stereo partly drawn) [I-1862, Ac-PL3-Asp-Npg-B5-Asp-TfeGA-Ala-Ala-Phe-[CH2NMe2]TriAzDap-PyrS2-3Thi-BztA-Gln-NH2] | 8.00 | 4.71 | 
CC(=O)N1CCC[C@]12CC=CCCCC1(CCCC=CCCCOC(=O)N3CC[C@@](C(=O)N[C@@H](Cc4ccsc4)C(=O)N[C@@H](Cc4csc5ccccc45)C(=O)N[C@@H](CCC(N)=O)C(N)=O)(C3)NC(=O)[C@H](CC(C)C)NC(=O)[C@H](Cc3cccc(C(=O)O)c3)NC(=O)[C@H](C)NC(=O)[C@H](C)NC(=O)[C@H](Cc3c[nH]cn3)NC(=O)[C@H](CC(=O)O)NC1=O)NC(=O)[C@H](CC(C)(C)C)NC(=O)[C@H](CC(=O)O)NC2=O (stereo partly drawn) [I-2123, Ac-PL3-Asp-Npg-B5-Asp-His-Ala-Ala-3COOHF-Leu-PyrS2-3Thi-BztA-Gln-NH2] | 7.92 | 4.57 | 
CC(=O)N1CCC[C@]12CC=CCCCC1(CCCC=CCCCOC(=O)N3CC[C@@](C(=O)N[C@@H](Cc4ccccc4Cl)C(=O)N[C@@H](Cc4csc5ccccc45)C(=O)N[C@@H](CC(N)=O)C(N)=O)(C3)NC(=O)[C@H](Cc3ccccc3)NC(=O)[C@H](Cc3ccccc3)NC(=O)[C@H](C)NC(=O)[C@H](C)NC(=O)[C@H](Cc3cccc(C(=O)O)c3)NC(=O)[C@H](CC(=O)O)NC1=O)NC(=O)[C@H](CC(C)(C)C)NC(=O)[C@H](CC(=O)O)NC2=O (stereo partly drawn) [I-2037, Ac-PL3-Asp-Npg-B5-Asp-3COOHF-Ala-Ala-Phe-Phe-PyrS2-2C1F-BztA-Asn-NH2] | 7.77 | 5.30 | 
CC(=O)N1CCC[C@]12CC=CCCCC1(CCCC=CCCCCCC[C@@](C)(C(=O)N[C@@H](Cc3ccccc3)C(=O)N[C@@H](Cc3csc4ccccc34)C(=O)N[C@@H](CCC(N)=O)C(N)=O)NC(=O)[C@H](CCO)NC(=O)[C@H](Cc3ccccc3)NC(=O)[C@H](C)NC(=O)[C@H](C)NC(=O)[C@H](CCC(=O)O)NC(=O)[C@H](CC(=O)O)NC1=O)NC(=O)[C@H](CCO)NC(=O)[C@H](CC(=O)O)NC2=O (stereo partly drawn) [I-1548, Ac-PL3-Asp-Hse-B5-Asp-Glu-Ala-Ala-Phe-Hse-S8-Phe-BztA-Gln-NH2] | 7.55 |  | < 4.70
CNC(=O)CC[C@@H]1NC(=O)[C@H](CCC(N)=O)NC(=O)[C@H](CC(=O)O)NC(=O)C2(CCCC=CCCCOC(=O)N3CC[C@@](C(=O)N[C@@H](Cc4ccccc4)C(=O)N[C@@H](Cc4csc5ccccc45)C(=O)N[C@@H](CC(=O)N4CCOCC4)C(N)=O)(C3)NC(=O)[C@H](CC(C)C)NC(=O)[C@H](Cc3ccccc3)NC(=O)[C@H](C)NC1=O)CCCC=CC[C@]1(CCCN1C(C)=O)C(=O)N[C@@H](CC(N)=O)C(=O)N[C@@H](CC1CCCCC1)C(=O)N2 (stereo partly drawn) [I-2502, Ac-PL3-Asn-Cha-B5-Asp-Gln-MeGln-Ala-Phe-Leu-PyrS2-Phe-BztA-MorphAsn-NH2] | 6.67 |  | < 4.70
CC(=O)N1CCC[C@]12CC=CCCCC1(CCCC=CCCCOC(=O)N3CC[C@@](C(=O)N[C@@H](Cc4ccsc4)C(=O)N[C@@H](Cc4csc5ccccc45)C(=O)N[C@@H](CC(C)(C)C)C(N)=O)(C3)NC(=O)[C@H](CC(C)C)NC(=O)[C@H](Cc3ccccc3)NC(=O)[C@H](C)NC(=O)[C@H](CO)NC(=O)[C@H](Cc3cccc(C(=O)O)c3)NC(=O)[C@H](CC(=O)O)NC1=O)NC(=O)[C@H](CC(C)(C)C)NC(=O)[C@H](CC(=O)O)NC2=O (stereo partly drawn) [I-2195, Ac-PL3-Asp-Npg-B5-Asp-3COOHF-Ser-Ala-Phe-Leu-PyrS2-3Thi-BztA-Npg-NH2] | 7.21 | 4.68 | 
CC(=O)N1CCC[C@]12CC=CCCCC1(CCCC=CCCCOC(=O)N3CC[C@@](C(=O)N[C@@H](Cc4ccsc4)C(=O)N[C@@H](Cc4ccc5ccccc5c4)C(=O)N[C@@H](CCC(N)=O)C(N)=O)(C3)NC(=O)[C@H](CC(C)C)NC(=O)[C@H](Cc3ccccc3)NC(=O)[C@H](C)NC(=O)[C@H](C)NC(=O)[C@H](CC(=O)O)NC(=O)[C@H](CC(=O)O)NC1=O)NC(=O)[C@H](CC(C)(C)C)NC(=O)[C@H](CC(=O)O)NC2=O (stereo partly drawn) [I-1235, Ac-PL3-Asp-Npg-B5-Asp-Asp-Ala-Ala-Phe-Leu-PyrS2-3Thi-2NapA-Gln-NH2] | 7.57 |  | 4.61
